% of control, % binding and % of inhibition data for six compounds are collected here from ChEMBL document CHEMBL5465560, “Selectivity Literature for EUbOPEN Chemogenomic Library” (2024).

The target of assay [1] is T1, Casein kinase I isoform alpha-like (Homo sapiens) (UniProt Q8N752).
T1 sequence (whole entry): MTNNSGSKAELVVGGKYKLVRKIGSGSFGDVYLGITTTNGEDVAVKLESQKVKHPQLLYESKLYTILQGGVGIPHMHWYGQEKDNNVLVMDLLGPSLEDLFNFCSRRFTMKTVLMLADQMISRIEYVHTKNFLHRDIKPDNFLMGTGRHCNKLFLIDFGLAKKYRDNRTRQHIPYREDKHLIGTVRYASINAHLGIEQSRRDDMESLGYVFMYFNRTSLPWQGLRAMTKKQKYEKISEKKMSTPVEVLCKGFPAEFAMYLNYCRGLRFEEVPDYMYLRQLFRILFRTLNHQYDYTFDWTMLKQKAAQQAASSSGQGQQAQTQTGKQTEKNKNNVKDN
Kind of assay: Selectivity interaction (KinomeScan (DiscoverX)) EUB0000607a CSNK1A1L. As to conditions: at 10 µM.

Assay [2] deals with T2, Serine/threonine-protein kinase 3 (Homo sapiens) (UniProt Q13188).
T2 sequence (whole entry): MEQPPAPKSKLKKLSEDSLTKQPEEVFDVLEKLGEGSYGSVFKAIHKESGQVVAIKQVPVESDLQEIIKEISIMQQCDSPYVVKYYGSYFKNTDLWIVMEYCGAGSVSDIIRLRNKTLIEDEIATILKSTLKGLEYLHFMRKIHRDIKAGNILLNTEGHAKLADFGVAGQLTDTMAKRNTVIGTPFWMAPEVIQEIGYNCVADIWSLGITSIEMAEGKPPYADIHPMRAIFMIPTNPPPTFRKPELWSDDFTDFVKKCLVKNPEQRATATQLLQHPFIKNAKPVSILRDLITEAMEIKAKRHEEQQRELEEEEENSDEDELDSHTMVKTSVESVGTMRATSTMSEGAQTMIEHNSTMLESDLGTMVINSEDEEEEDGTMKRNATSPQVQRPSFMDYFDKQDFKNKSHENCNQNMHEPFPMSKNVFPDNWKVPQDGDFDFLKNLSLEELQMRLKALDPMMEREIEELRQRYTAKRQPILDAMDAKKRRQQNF
As to conditions: at 10 µM.

Assay [3] addresses T3, Mitogen-activated protein kinase kinase kinase 12 (Homo sapiens) (UniProt Q12852).
T3 sequence (whole entry): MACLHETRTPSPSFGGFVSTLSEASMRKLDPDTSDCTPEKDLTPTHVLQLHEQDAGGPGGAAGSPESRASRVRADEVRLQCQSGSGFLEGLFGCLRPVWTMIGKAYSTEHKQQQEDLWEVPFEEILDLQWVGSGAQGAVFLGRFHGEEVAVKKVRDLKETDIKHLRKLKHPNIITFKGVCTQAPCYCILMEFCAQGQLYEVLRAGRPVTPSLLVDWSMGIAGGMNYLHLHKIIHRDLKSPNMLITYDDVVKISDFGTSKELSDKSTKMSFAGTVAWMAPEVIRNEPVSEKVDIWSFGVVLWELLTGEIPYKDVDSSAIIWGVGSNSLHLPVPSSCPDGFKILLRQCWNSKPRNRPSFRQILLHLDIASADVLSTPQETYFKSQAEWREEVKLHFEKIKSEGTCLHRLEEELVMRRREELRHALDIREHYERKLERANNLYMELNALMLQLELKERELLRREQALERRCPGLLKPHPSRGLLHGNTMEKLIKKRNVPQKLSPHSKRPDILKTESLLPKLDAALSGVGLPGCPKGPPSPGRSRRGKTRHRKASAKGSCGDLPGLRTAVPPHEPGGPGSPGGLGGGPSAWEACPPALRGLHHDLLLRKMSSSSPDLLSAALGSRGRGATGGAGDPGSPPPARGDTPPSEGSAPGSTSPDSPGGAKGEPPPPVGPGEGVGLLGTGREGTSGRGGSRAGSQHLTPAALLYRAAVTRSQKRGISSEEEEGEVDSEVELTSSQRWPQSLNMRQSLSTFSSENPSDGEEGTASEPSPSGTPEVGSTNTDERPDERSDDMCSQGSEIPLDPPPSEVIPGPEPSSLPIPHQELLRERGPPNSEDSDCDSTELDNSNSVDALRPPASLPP
Nature of the assay: Selectivity interaction (KinomeScan (DiscoverX)) EUB0000229b MAP3K12. As to conditions: at 10 µM.

Assay [4] concerns the target T4, Mitogen-activated protein kinase kinase kinase kinase 2 (Homo sapiens) (UniProt Q12851).
T4 sequence (whole entry): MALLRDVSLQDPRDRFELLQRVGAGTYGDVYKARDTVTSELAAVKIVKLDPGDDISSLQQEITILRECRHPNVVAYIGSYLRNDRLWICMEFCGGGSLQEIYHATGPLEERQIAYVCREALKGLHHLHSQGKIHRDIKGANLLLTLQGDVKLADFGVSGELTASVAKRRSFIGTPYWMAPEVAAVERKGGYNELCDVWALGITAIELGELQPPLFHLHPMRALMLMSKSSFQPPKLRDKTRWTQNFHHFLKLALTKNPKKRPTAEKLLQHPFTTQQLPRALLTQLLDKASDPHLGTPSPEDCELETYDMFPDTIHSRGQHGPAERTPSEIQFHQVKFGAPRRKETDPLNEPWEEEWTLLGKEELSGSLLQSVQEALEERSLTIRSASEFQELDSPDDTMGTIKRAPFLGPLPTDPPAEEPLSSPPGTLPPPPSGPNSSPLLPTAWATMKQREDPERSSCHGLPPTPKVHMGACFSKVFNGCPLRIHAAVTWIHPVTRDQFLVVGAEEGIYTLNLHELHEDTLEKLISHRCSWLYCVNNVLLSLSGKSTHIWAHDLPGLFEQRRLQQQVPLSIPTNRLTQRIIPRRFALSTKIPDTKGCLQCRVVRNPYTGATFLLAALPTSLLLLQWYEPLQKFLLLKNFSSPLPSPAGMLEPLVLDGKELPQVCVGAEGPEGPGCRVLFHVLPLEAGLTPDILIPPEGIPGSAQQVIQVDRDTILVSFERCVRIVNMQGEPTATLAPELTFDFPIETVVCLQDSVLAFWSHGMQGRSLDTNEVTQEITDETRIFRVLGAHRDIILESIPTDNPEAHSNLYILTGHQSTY
Nature of the assay: Selectivity interaction (KinomeScan (DiscoverX)) EUB0000655a MAP4K2. As to conditions: at 10 µM.

Assay [5] addresses Serine/threonine-protein kinase ATR (Homo sapiens) (UniProt Q13535). Kind of assay: Selectivity interaction (ActivX KiNativ screen (ex vivo kinase selectivity in human PBMCs)) EUB0001619a ATR. Format: cell-based. The note with it: PBMC, at 1 µM.
Assay [6] deals with 5'-AMP-activated protein kinase catalytic subunit alpha-2 (Homo sapiens) (UniProt P54646). Kind of assay: Selectivity interaction (ActivX KiNativ screen (kinase selectivity in THP-1 cell lysates)) EUB0000639a PRKAA2. The note with it: lysate, at 5 µM. Format: subcellular.
Chain of 5'-AMP-activated protein kinase catalytic subunit alpha-2 (Homo sapiens) (P54646 whole entry, looked up): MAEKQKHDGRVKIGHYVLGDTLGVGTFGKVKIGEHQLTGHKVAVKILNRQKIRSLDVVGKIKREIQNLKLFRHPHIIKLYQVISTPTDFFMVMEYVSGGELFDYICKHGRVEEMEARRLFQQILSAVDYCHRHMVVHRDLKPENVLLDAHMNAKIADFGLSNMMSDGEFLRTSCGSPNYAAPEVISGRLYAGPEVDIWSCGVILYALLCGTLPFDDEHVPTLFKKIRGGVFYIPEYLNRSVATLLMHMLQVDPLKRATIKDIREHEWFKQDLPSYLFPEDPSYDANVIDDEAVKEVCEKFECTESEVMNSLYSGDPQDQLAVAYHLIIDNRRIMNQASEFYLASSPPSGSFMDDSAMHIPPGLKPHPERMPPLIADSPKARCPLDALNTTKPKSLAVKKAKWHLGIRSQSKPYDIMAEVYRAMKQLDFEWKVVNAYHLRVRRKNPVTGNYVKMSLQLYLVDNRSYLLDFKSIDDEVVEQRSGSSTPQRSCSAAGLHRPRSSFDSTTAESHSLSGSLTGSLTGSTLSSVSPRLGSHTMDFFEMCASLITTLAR

Structures are written as SMILES.

Chain of Serine/threonine-protein kinase ATR (Homo sapiens) (Q13535 whole entry, looked up): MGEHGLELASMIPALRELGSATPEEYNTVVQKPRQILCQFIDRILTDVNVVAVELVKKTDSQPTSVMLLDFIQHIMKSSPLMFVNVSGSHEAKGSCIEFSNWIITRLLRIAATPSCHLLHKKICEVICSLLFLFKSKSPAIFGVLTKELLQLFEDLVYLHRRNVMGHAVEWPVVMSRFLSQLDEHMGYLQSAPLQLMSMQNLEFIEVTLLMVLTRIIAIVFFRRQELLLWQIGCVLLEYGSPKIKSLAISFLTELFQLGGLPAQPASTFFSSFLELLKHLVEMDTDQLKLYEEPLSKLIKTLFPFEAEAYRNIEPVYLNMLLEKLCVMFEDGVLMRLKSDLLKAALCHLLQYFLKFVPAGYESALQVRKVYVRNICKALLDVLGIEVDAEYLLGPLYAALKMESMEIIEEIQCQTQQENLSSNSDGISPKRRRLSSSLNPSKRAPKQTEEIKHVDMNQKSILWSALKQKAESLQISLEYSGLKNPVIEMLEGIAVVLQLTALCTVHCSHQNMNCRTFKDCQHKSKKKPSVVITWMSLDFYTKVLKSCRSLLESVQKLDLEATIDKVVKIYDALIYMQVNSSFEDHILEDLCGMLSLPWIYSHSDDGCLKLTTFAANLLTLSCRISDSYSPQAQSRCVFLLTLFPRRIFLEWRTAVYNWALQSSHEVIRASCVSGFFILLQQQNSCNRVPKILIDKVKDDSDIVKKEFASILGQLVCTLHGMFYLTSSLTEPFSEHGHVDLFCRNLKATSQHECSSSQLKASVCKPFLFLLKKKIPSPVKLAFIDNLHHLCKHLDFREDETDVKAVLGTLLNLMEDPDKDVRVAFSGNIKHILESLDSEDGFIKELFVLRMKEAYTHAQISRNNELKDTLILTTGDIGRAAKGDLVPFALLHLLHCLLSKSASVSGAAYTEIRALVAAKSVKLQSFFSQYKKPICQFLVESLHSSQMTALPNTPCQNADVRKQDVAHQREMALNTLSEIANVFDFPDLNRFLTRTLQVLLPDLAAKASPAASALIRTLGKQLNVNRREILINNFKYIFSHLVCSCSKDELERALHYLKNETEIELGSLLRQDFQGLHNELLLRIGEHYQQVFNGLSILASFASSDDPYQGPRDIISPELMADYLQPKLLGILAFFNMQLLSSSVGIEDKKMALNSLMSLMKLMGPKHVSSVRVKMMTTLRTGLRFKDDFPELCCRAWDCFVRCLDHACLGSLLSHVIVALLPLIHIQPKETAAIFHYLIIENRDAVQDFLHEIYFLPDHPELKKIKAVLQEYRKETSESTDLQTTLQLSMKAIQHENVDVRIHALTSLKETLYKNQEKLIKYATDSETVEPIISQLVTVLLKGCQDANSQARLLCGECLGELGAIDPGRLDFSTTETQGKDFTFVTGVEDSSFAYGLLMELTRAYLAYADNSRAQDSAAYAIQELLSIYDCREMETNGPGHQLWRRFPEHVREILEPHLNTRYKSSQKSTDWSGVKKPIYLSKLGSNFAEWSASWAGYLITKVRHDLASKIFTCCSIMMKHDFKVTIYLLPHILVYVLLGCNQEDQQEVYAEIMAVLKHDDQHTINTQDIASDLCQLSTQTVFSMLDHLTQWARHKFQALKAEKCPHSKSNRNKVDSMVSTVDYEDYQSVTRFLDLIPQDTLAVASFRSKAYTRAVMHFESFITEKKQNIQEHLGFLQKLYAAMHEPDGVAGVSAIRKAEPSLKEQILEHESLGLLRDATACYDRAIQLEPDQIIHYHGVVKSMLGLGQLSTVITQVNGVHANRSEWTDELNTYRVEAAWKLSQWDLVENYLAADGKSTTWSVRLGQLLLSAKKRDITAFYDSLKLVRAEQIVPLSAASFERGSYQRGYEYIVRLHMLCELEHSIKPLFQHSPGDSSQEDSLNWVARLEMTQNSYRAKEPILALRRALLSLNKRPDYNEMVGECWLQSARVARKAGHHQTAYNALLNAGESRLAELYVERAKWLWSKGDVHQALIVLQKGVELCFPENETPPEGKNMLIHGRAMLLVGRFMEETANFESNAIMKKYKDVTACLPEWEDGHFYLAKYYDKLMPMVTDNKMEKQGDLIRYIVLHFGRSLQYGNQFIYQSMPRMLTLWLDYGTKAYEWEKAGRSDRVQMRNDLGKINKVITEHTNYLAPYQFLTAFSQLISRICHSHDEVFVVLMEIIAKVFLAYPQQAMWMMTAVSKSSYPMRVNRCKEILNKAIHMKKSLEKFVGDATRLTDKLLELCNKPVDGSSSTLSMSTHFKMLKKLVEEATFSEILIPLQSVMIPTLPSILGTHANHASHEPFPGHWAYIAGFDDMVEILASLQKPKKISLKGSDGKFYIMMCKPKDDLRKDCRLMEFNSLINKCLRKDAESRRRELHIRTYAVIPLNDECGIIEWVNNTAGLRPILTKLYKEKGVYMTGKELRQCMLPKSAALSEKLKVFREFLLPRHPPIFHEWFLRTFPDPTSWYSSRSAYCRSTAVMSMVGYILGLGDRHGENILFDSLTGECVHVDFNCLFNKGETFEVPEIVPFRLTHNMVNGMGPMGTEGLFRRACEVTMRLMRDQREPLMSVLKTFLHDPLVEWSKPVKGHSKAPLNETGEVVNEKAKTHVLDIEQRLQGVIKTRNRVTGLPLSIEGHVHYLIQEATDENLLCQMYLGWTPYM

In the case of `CNC(=O)Nc1ccc(-c2nc(N3CC4CCC(C3)O4)c3cnn(C4CCC5(CC4)OCCO5)c3n2)cc1`, the % of control in assay [1] amounted to 100%. `Cc1cc([C@@H](C)Nc2ccccc2C(=O)O)c2nc(N3CCOCC3)cc(=O)n2c1` [AZD-6482] returned a % of control in assay [2] of 66%. On to `COc1cc(N(C)c2ccnc3ccc(C(F)(F)F)cc23)cc(OC)c1OC`, for which the % binding in assay [3] stood at 78%.

Take `CN(C)CCOc1ccc(-c2nc(-c3ccncc3)c(-c3ccc4c(c3)CC/C4=N\O)[nH]2)cc1`: the % of control in assay [4] stood at 74%.

For `N#Cc1cccc(-c2c[nH]c3ncnc(N4CCOCC4)c23)c1`, the % of inhibition in assay [5] stood at 25%. Consider `CC[C@@H]1[C@H](F)C(=O)N[C@@H]1COc1nccc2cc(C(N)=O)c(OC)cc12` [ZIMLOVISERTIB], for which the % of inhibition in assay [6] was found to be 18.6%.
